The results in this text go back to US8778889B2, “Antimicrobial decapeptide oral hygiene treatment” (The United States of America as represented by the …, priority 2003, dated 2014).

Ends that are not written are not given here.

Assay [1] relates to biofilms grown on saliva-coated HA surfaces. Nature of the assay: Live/Dead BacLight staining with confocal laser scanning microscopy of treated biofilms. The format is cell-based, human salivary bacteria. The note with it: 66 h-old biofilms; KSL 200 μg/ml, Bzl 0.001%, CHX 0.12%. The procedure: (A) Effect of KSL on intact versus disrupted 45 h biofilms formed on saliva-coated HA disks by salivary bacteria using the in vitro plaque assay. A Mann-Whitney test was used for comparison of log reductions in CFU between the experimental groups (KSL-treated intact or disrupted biofilms) with the control groups (dH2O-treated intact or disrupted biofilms). The single asterisk represents a statistically significant difference between KSL and dH2O-treated intact biofilms (p<0.05). Likewise, double asterisks represent a statistically significant difference between KSL and dH2O-treated disrupted biofilms (p<0.01). […] (B) Effect of benzalkonium chloride in promoting the bactericidal activity of KSL against 66 h-old intact oral biofilms formed on saliva-coated HA disks using the in vitro plaque system. A Kruskal-Wallis test was used to compare log reductions in CFU among various treatment groups including the control group (dH2O-treated). The single asterisk represents a statistically significant difference between the combined treatment of KSL and benzalkonium chloride (Bzl) and dH2O (p<0.001), KSL (p<0.01), or Bzl (p<0.01)-treated intact biofilms. Double asterisks represent a statistically significant difference between CHX and dH2O (p<0.001) or Bzl (P<0.05)-treated intact biofilms. […] No significant difference in viability counts was observed between CHX-treated versus the combined use of KSL and Bzl. For (A) and (B), the data represent the determinations of one of three separate experiments, each performed in quadruplicate. Bars represent standard deviations. (C) Confocal images of control and treated biofilms grown on saliva-coated HA surfaces. Live/Dead BacLight™ Viability kit (Molecular Probes, Eugene, Oreg.) was used to assess the viability of biofilm cells exposed to different treatments. […] An excitation wavelength of 488 nm was used and the fluorescence light emitted was collected by two separate emission filters, 500-530 nm (SYTO 9, live), and 650-710 nm (propidium iodide, dead). […]

The test system of another assay is MRSA WRAMC #9. The class given is cell-based, Staphylococcus aureus. From the text: (§1) As shown in the table below, many drug-resistant pathogens including multidrug-resistant Acinetobacter baumannii (clinical isolates) were susceptible to the bactericidal activity of the newly developed antimicrobial peptides. […] This is shown by their lower MIC and MBC against a number of antibiotic-resistant bacteria including methicillin-resistant Staphylococcus aureus, vancomycin-resistant Enterococci, and multidrug-resistant Acinetobacter baumannii. Many of these resistant strains are involved in nosocomial infections, which affect the immunocompromised and the elderly individuals with weakened defenses. The tests were done in a broth microdilution assay as described in our earlier publication (Concannon et al., 2003).

Another assay concerns MRSA ATCC #33591. The format is cell-based, Staphylococcus aureus.
Excerpt: as §1

The next assay has as its system MRSA VVRAMC #10. The class given is cell-based, Staphylococcus aureus.
Excerpt: as §1

The subject of a further assay is MRSA VVRAMC #1. The format is cell-based, Staphylococcus aureus.
Excerpt: as §1

A further assay has as its system MRSA WRAMC #12. The class given is cell-based, Staphylococcus aureus.
Excerpt: as §1

For a further assay, the system named is MRSA ATCC #43300. The format is cell-based, Staphylococcus aureus.
Excerpt: as §1

The term MBC denotes the smallest concentration meeting the test's criterion for killing. A low value points to more potent killing. A word on the MIC: it is the smallest concentration in the dilution series that meets the test's criterion for growth inhibition. Low values mean inhibition by little substance, high ones a need for much substance. For the substance “KKVVFKVKFK-NH2 [KSL, Lys-Lys-Val-Val-Phe-Lys-Val-Lys-Phe-Lys-NH2]”, the “viability of biofilm cells by live/dead staining” value in assay [1] is on record as “less impact on the viability of biofilm cells”. For the same substance, the MBC against MRSA WRAMC #9 was greater than 200 µg/mL; in the assay on MRSA ATCC #33591, greater than 200 µg/mL; with MRSA VVRAMC #10 it was greater than 200 µg/mL; against MRSA VVRAMC #1, greater than 200 µg/mL; in the assay with MRSA WRAMC #12, greater than 200 µg/mL; in the assay on MRSA ATCC #43300, 200 µg/mL. In addition, the MIC against MRSA WRAMC #9 was greater than 200 µg/mL; with MRSA ATCC #33591 it was 200 µg/mL; against MRSA VVRAMC #10 it was greater than 200 µg/mL; with MRSA VVRAMC #1, greater than 200 µg/mL; in the assay with MRSA WRAMC #12, greater than 200 µg/mL; against MRSA ATCC #43300, 100 µg/mL.
